From US20100143405A1, “Immunotherapy of virus infection” (priority 2004, published 2010)

Assays:
PBMC = PBMC proliferation induced by Th epitope P25; type: cell-based, human
Text: Preferably, the Th cell epitope is P25, KLIPNASLIENCTKAEL (SEQ ID No:8), from the F protein of morbillivirus (Ghosh et al, 2001). This epitope is promiscuous in all outbred dogs that have been studied by the inventors so far and also in all strains of mice and cattle examined (unpublished results). This epitope is also able to induce PBMC proliferation in at least 50% of blood samples extracted from human volunteers. The F protein is conserved across most morbilliviruses and in the case of P25 is conserved in canine distemper virus, rhinderpest and measles viruses.

[1] = tested on: CTL epitope-specific CD8^+ T cells; set-up: species or system BALB/c mice; details: mouse, in vivo

Substance | blood samples from human volunteers in which PBMC proliferation is induced (PBMC) | antigen-specific CD8+ T cell responses compared with non-lipidated peptide [1] | antigen-specific CD8+ T cells in lung and spleen compared with non-lipidated peptide [1]
KLIPNASLIENCTKAEL (Morbillivirus) [P25] | at least 50% | – | –
GALNNRFQIKGVELKS-K(Pam2CSS)-TYQRTRALV [lipopeptide] | – | not enhanced | more antigen-specific CD8^+ T cells
